According to PMC12728616, “Regioselective Glycosylation of Fluorine-18-Labeled Sorbitol for Enhanced Bacterial Detection In Vivo Using PET” (JACS Au, 2025):

Tests used:
Test in all cases: In vitro uptake of 18F-tracers by bacteria
Assay type in all cases: cell-based
Listeria monocytogenes = settings: L. monocytogenes; 37 °C, 90 min
Method: (§1) In vitro evaluation of ^18F-tracers was conducted according to our established procedure. Briefly, bacteria were incubated overnight at 37 °C, subcultured into a fresh medium at an initial OD600 of 0.05, and then allowed to reach the mid log phase (OD600 ∼ 0.4). The cultures were subsequently incubated with ^18F-tracers (final concentration: 0.1 MBq/mL) at 37 °C for 90 min. Subsequently, 300 μL aliquots of these cultures were centrifuged at 13,200 rpm for 6 min. The resulting pellets were washed with 300 μL of phosphate-buffered saline (PBS). The radioactivity of the pellets and supernatants was measured using a gamma counter. Uptake values were normalized to colony-forming units (CFUs).

[1] = tested on: Staphylococcus epidermidis; settings: S. epidermidis; 37 °C, 90 min
Method: as §1

Streptococcus pyogenes = settings: S. pyogenes; 37 °C, 90 min
Method: as §1

SMILES: OC[C@@H](O)[C@@H](O)[C@H](O[C@H]1O[C@H](CO)[C@@H](O)[C@H](O)[C@H]1O)[C@@H]([18F])CO [[18F]FNT, 2-deoxy-2-[18F]fluoro-D-nigeritol]
- in vitro uptake (Listeria monocytogenes): low
- in vitro uptake [1]: moderate uptake
- in vitro uptake (Streptococcus pyogenes): low
